What was measured:
CDK9/CyclinT = target: T1, CDK9/CyclinT (Homo sapiens, UniProt P50750); test: ADP-Glo kinase inhibition assay, CDK9/CyclinT; format: biochemical; settings: percentage of maximum activity of the DMSO control, mean n = 2, 10 µM ATP, read-out: Residual activity CDK9/CyclinT; for remaining activity at 1 µM: 1 μM compound; for remaining activity at 10 µM: 10 μM compound
T1 construct: host or cells: Sf9 insect cells (baculovirus)
Protocol: Kinase enzymatic activities were assayed in 384-well plates using the ADP-Glo^TM assay kit (Promega, Madison, WI, USA) according to the recommendations of the manufacturer. This luminescent ADP detection assay was described by Zegzouti and co-workers and provides a homogeneous and high-throughput screening method to measure kinase activity by quantifying the amount of ADP produced during a kinase reaction. Briefly, the reactions were carried out in a final volume of 6 µL for 30 min at 30 °C in an appropriate kinase buffer (10 mM MgCl2, 1 mM EGTA, 1 mM DTT, 25 mM Tris-HCl pH 7.5, 50 µg/mL heparin), with peptide or protein as substrate in the presence of 10 µM ATP. Peptide substrates were obtained from ProteoGenix (Schiltigheim, France) or Sigma for Histone H1, Poly (L-glutamic acid–L-tyrosine) sodium salt, Casein and MBP. After that, 6 µL of ADP-Glo^TM Kinase Reagent was added to stop the kinase reaction. After an incubation time of 50 min at room temperature (rt), 12 µL of Kinase Detection Reagent was added for one hour at rt. The transmitted signal was measured using the Envision (PerkinElmer, Waltham, MA, USA) microplate luminometer and expressed as Relative Light Units (RLUs). Kinase activities are expressed as percentages of remaining kinase activities detected after treatment with 1 or 10 µM of the tested compounds. The maximum kinase activity was measured in the absence of inhibitor but with an equivalent dose of DMSO (solvent of the tested compounds).
3. Kinase inhibition assays
Kinase enzymatic activities were assayed in 384-well plates using the ADP-GloTM assay kit (Promega, Madison, WI) according to the recommendations of the manufacturer. This luminescent ADP detection assay was described by Zegzouti and co-workers and provides a homogeneous and high-throughput screening method to measure kinase activity by quantifying the amount of ADP produced during a kinase reaction. Briefly, the reactions were carried out in a final volume of 6 µl for 30 min at 30°C in appropriate kinase buffer (10 mM MgCl2, 1 mM EGTA, 1 mM DTT, 25 mM Tris-HCl pH 7.5, 50 µg/mL heparin), with peptide or protein as substrate in the presence of 10 µM ATP. Peptide substrates were obtained from ProteoGenix (Schiltigheim, France) or Sigma for Histone H1, Poly (L-glutamic acid – L-tyrosine) sodium salt, Casein and MBP. After that, 6 µL of ADP-GloTM Kinase Reagent was added to stop the kinase reaction. After an incubation time of 50 min at room temperature (rt), 12 µL of Kinase Detection Reagent was added for 1 h at rt. The transmitted signal was measured using the Envision (PerkinElmer, Waltham, MA) microplate luminometer and expressed in Relative Light Unit (RLU). Kinase activities are expressed in percentages of remaining kinase activities detected after treatment with 1 or 10 µM of the tested compounds. The maximal kinase activity is measured in the absence of inhibitor but with an equivalent dose of DMSO (solvent of the tested compounds).
Table. Human protein kinases tested in the panel: CDK9, HASPIN, PIM1, GSK3b, CK1ε, JAK3, CLK1 […]
Protein Kinase Enzyme Description Substrate1
(Family) (Working concentration)
CDK9/CyclinT Human, recombinant, expressed by Peptide:
(CMGC) baculovirus in Sf9 insect cells […]
CLK1 Human, recombinant, expressed by Peptide: […]
(CMGC) baculovirus in Sf9 insect cells (57.3µM)
DYRK1A Human, recombinant, expressed by Peptide: […]
(CMGC) baculovirus in Sf9 insect cells (10.7µM)
PIM1 Human proto-oncogene, recombinant, Peptide: […]
(CAMK) expressed in bacteria (630 µM)
GSK3 Human, recombinant, expressed by Peptide:
(CMGC) baculovirus in Sf9 insect cells […]pEDEEE 3
HASPIN Human, kinase domain, amino acids 470 to Histone H3 peptide (1-21):
(Other) 798, recombinant, expressed in bacteria […] (8µM)
CK1ε Human, recombinant, expressed by Peptide: […]pAYSITA 2
(CK1) baculovirus in Sf9 insect cells (170µM)
JAK3 Human, recombinant, expressed by Peptide: […]
(TK) baculovirus in Sf9 insect cells (94µM) […]

[1] = In vitro cytotoxic assay, Caco-2; format: cell-based; settings: human, Caco-2 cells (colon cancer cell line); further: 0.1-25 µM tested
Protocol: Skin normal fibroblastic cells were purchased from Lonza (Basel, Switzerland). […] All culture media were supplemented by 10% of FBS, 1% of penicillin–streptomycin and 2 mM glutamine.
Chemicals were solubilized in DMSO at a concentration of 10 mM (stock solution) and diluted in culture medium to the desired final concentrations. […] Cells were plated in 96-well plates (4000 cells/well). Twenty-four hours after seeding, the cells were exposed to chemicals. […] Image acquisition and analysis were performed using a Cellomics ArrayScan VTI/HCS Reader (ThermoScientific, Les Ulis, France). The survival percentages were calculated as the percentage of cell number after compound treatment over cell number after DMSO treatment. The relative IC50 values were calculated using the curve fitting XLfit 5.5.0.5 (idbs) integrated in Microsoft Excel as an add-on.
4.3.1. Cell culture. Skin normal fibroblastic cells are purchased from Lonza (Basel, Switzerland). Huh7- […]
from ATCC (American Type Culture Collection). […]
supplemented by 10% of FBS, 1% of penicillin-streptomycin and 2 mM glutamine.
4.3.2. Cytotoxic assay. Chemicals were solubilized in DMSO at a concentration of 10 mM (stock solution) and diluted in culture medium to the desired final concentrations. The dose effect cytotoxic assays (IC50 determination) were performed by increasing the concentrations of each chemical (final well […]
Cells were plated in 96-well plates
(4000 cells/well). Twenty-four hours after seeding, cells were exposed to chemicals. After 48h of treatment, cells were washed in PBS and fixed in cooled 90% ethanol/5% acetic acid for 20 min and the […]
Image acquisition and analysis were performed using a Cellomics ArrayScan VTI/HCS Reader (ThermoScientific). The survival percentages were calculated as the percentage of cell number after compound treatment over cell number after DMSO treatment. The relative IC50 were calculated using the curve fitting XLfit 5.5.0.5 (idbs) integrated in Microsoft Excel as an add-on. The 4 Parameter Logistic Model or Sigmoidal Dose-Response Model describing the sigmoid-shaped response pattern was used (fit = (A+[(B-A)/(1+[(C/x)^D])]) where fit is the response and X is the tested concentration of the compound. The lower asymptote is A (also referred to as the bottom of the curve or lower plateau or the min) and the upper asymptote is B (also referred to as the top of the curve or upper plateau or the max). The slope of the linear part of the curve is described by the factor D. The parameter C is the concentration corresponding to the response midway between A and B. C is called “relative IC50” because it refers to the maximum response obtained by a […]
The results are represented as the mean ± standard error (SE) calculated from at least three independent experiments.

T1 sequence (P50750 whole entry): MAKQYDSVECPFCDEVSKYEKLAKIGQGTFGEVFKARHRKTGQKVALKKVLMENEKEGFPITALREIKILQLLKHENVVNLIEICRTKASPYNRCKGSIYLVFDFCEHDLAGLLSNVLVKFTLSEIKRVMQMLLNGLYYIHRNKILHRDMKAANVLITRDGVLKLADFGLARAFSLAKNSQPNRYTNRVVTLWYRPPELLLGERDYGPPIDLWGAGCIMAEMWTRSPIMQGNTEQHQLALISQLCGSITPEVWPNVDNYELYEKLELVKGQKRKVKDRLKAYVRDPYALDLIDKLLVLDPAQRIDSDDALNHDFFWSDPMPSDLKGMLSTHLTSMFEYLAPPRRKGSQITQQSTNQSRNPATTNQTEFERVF
T1 sequence (O60563 whole entry partner): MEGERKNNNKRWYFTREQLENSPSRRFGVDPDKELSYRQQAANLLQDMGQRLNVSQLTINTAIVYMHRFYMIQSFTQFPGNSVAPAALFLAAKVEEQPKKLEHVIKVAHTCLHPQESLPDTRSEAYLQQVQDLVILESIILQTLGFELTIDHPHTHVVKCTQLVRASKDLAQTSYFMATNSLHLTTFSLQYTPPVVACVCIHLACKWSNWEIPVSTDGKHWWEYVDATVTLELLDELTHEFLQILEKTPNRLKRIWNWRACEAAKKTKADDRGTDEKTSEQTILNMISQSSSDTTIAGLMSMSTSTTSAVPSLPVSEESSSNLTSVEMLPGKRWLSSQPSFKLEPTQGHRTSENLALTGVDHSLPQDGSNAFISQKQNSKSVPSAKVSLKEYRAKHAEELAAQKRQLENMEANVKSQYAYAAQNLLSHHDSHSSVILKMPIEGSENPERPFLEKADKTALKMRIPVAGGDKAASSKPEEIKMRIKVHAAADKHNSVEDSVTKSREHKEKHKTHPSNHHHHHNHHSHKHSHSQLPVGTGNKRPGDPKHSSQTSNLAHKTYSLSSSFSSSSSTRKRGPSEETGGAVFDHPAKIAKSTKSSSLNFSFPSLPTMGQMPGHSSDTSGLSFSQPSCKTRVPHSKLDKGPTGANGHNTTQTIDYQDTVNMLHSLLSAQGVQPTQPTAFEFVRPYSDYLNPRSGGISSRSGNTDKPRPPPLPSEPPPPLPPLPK

remaining activity at 1 µM (CDK9/CyclinT) [%]	remaining activity at 10 µM (CDK9/CyclinT) [%]	SMILES	IC50 at 48 h [1] [µM]
103	101	COC(=N)c1nc2cc3c(=O)n(Cc4ccccc4)cnc3cc2s1 [Compound 6a, Methyl 7-benzyl-8-oxo-7,8-dihydrothiazolo[4,5-g]quinazoline-2-carbimidate]	17
107	104	COC(=N)c1nc2cc3ncn(Cc4ccccc4)c(=O)c3cc2s1 [Compound 6b, Methyl 7-benzyl-8-oxo-7,8-dihydrothiazolo[5,4-g]quinazoline-2-carbimidate]	2
105	101	COC(=N)c1nc2c(ccc3c(=O)n(Cc4ccccc4)cnc32)s1 [Compound 6c, Methyl 7-benzyl-6-oxo-6,7-dihydrothiazolo[5,4-h]quinazoline-2-carbimidate]	6
106	94	COC(=N)c1nc2ccc3c(=O)n(Cc4ccccc4)cnc3c2s1 [Compound 6d, Methyl 7-benzyl-6-oxo-6,7-dihydrothiazolo[4,5-h]quinazoline-2-carbimidate]	10
101	100	COC(=N)c1nc2cc3c(Nc4ccc(OC)cc4F)ncnc3cc2s1 [Compound 15a, Methyl 8-[(2-fluoro-4-methoxyphenyl)amino]thiazolo[4,5-g]quinazoline-2-carbimidate]	–
98	110	COC(=N)c1nc2cc3ncnc(Nc4ccc(OC)cc4F)c3cc2s1 [Compound 15b, Methyl 8-[(2-fluoro-4-methoxyphenyl)amino]thiazolo[5,4-g]quinazoline-2-carbimidate]	–
91	41	COC(=N)c1nc2ccc3ncn(Cc4ccccc4)c(=O)c3c2s1 [Compound I, methyl 8-benzyl-9-oxo-8,9-dihydrothiazolo[5,4-f]quinazoline-2-carbimidate, reference compound]	12

SMILES	remaining activity at 1 µM (CDK9/CyclinT) [%]	remaining activity at 10 µM (CDK9/CyclinT) [%]	IC50 at 48 h [1] [µM]
COC(=N)c1nc2ccc3ncnc(Nc4ccc(OC)cc4F)c3c2s1 [Compound II, methyl 9-[(2-fluoro-4-methoxyphenyl)amino]thiazolo[5,4-f]quinazoline-2-carbimidate, reference compound]	86	59	3
